Experimental data published in patent US20130203718A1 (priority 2010, published 2013).

Columns and labels:
hMR = target: T1, hMR (Homo sapiens, UniProt P08235); assay: APRn selectivity: transactivation in HEK293T cells transiently expressing hMR; format: cell-based; conditions: mean±SEM; for MR Antagonist efficacy (%): aldosterone 10^−9 M
T1 construct: expressed in transfected cells; host or cells: HEK 293T
T1 sequence (P08235 1-984): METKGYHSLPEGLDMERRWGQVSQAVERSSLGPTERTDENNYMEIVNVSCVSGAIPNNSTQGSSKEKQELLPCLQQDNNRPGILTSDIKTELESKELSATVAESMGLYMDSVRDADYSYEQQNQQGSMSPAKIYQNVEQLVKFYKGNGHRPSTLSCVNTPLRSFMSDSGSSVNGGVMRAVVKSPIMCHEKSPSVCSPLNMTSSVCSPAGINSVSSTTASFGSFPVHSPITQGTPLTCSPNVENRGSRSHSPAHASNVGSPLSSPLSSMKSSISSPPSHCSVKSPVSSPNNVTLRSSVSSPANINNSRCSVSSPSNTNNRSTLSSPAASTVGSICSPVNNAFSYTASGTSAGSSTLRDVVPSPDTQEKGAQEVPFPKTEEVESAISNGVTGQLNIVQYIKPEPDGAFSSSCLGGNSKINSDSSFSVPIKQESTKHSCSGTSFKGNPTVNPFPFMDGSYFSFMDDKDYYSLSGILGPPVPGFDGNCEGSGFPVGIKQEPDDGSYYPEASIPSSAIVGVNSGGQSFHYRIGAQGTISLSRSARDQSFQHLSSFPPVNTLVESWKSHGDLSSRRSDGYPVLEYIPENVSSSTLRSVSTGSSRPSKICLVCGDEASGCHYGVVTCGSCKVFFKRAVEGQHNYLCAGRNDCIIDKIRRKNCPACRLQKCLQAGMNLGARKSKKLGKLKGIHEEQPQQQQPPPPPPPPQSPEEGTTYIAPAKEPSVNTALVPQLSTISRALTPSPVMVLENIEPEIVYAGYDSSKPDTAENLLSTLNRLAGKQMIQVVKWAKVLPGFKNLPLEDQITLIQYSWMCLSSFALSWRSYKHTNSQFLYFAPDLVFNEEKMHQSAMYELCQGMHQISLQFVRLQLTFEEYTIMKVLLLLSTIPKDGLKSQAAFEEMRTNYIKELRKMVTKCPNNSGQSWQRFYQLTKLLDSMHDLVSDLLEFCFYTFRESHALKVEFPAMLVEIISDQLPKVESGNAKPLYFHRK
Description: (§1) Measurement of the APRn Selectivity in HEK 293T.
(§2) The HEK-293T cells were cultured and transfected according to the method described above for the PR transactivation assays. The expression vectors pcDNA-hAR, kindly provided by G. A. Coetzee, pchGR (Hellal-Levy, C et al. FEBS Lett 1999, 464, 9), and pchMR (Fagart, J. et al. EMBO J. 1998, 17, 3317) were used for studying the ability of APRn to activate or inactivate the AR, GR and MR, respectively. For each transfection assays, 2 μg of the expression vector was used together with 7 μg of the GRE2-Luc reporter vector. Dihydrotestosterone (DHT), dexamethasone (Dex) and Aldosterone (Aldo) were selected as AR, GR and MR ligands, respectively. They were used at the concentration of 10^−9 M. The APRn agonist and antagonist efficacy for AR, GR and MR were measured as described above for PR. The results are the mean±SEM of three independent experiments.
(§3) Transfection assays were performed in HEK 293T cells by using expression vectors for the hAR, hGR and hMR and the GRE2-Luc reporter used for the PR transactivation assays.

hAR = target: T2, hAR (Homo sapiens, UniProt P10275); assay: APRn selectivity: transactivation in HEK293T cells transiently expressing hAR; format: cell-based; conditions: for agonist efficacy towards hAR (in words): HEK293T, FIG. 11; for selectivity for hPR vs hAR, hGR and hMR (in words): conclusion from hAR, hGR and hMR transactivation assays
T2 construct: expressed in transfected cells; host or cells: HEK 293T
T2 sequence (P10275 1-920): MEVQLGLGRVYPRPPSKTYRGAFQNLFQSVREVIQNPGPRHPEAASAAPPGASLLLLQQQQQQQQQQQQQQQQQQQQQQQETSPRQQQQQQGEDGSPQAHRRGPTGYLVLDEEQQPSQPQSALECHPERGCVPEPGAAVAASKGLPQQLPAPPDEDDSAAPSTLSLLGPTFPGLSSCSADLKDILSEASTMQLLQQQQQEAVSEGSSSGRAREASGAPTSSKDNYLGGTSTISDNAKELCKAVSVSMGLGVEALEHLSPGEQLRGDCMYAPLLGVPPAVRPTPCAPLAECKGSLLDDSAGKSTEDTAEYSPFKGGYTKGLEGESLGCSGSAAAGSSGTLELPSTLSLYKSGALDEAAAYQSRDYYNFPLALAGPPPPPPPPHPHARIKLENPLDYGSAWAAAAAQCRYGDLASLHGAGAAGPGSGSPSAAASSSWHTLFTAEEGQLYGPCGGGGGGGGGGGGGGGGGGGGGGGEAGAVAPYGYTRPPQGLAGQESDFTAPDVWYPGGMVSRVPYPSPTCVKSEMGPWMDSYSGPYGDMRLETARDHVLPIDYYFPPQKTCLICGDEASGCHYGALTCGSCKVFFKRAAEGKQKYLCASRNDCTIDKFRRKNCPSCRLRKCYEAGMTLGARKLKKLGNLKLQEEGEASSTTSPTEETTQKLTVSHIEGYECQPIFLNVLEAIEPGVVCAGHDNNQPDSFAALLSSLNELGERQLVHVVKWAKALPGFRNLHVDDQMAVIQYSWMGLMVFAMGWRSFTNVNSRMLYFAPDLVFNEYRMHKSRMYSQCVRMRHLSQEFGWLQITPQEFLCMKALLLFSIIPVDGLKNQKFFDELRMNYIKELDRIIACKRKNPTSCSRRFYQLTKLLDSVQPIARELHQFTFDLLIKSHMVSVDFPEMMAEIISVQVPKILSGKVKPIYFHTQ
Description: as §1, §2, §3

Compound	MR Antagonist efficacy (%) (hMR)	MR Agonist efficacy (%) (hMR)	agonist efficacy towards hAR (in words) (hAR)	selectivity for hPR vs hAR, hGR and hMR (in words) (hAR)
CC(=O)[C@H]1CC[C@H]2[C@@H]3CC=C4C[C@@H](F)CC[C@]4(C)[C@H]3CC[C@]12C [APR-16, 3β-Fluoropregn-5-en-20-one]	−2.7 ± 3.3	0.53 ± 0.05	low agonist efficacy	selective hPR antagonists
C[C@@H]1CCC2C3CC=C4C[C@@H](F)CC[C@]4(C)C3CC[C@]2(C)[C@H]1F (stereo partly drawn) [APR-19, 3β,17α-Difluoro-17α-methyl-D-Homo-pregn-5-ene]	−1.0 ± 3.5	0.57 ± 0.07	–	–
CC#C[C@]1(O)CCC2C3CC[C@H]4CCCC[C@]4(C)C3CC[C@@]21C (stereo partly drawn) [APR-42, 17α-(1-Propynyl)-5α-androstan-17β-ol]	0.4 ± 2.6	0.57 ± 0.05	low agonist efficacy	selective hPR antagonists
C[C@]12CCC3C(CC=C4C[C@@H](F)CC[C@@H]43)C1CCC2=O (stereo partly drawn) [APR-47, 3β-Fluoro-19-nor-androst-5-en-17-one]	2.2 ± 2.1	0.50 ± 0.14	low agonist efficacy	selective hPR antagonists
CC#C[C@]1(O)CCC2C3CC[C@H]4CCCC[C@@H]4C3CC[C@@]21C (stereo partly drawn) [APR-54, 17α-(1-Propynyl)-19-nor-5-androstan-17β-ol]	3.4 ± 6.2	0.53 ± 0.11	–	–
